The values that follow come from patent publication US20240208968A1, “ALPHA V BETA 6 AND ALPHA V BETA 1 INTEGRIN INHIBITORS AND USES THEREOF” (DiCE Molecules SV, Inc., priority 2021, published 2024).

Counter-ions that a name gives are not always drawn. Where only a bound is given, the exact number is not on record here.

One assay concerns the target αvβ1 (Homo sapiens, UniProt P05556+P06756). Nature of the assay: Solid Phase Integrin αvβ1 Assay. In kind it is binding. The method, boiled down: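 Compound competes for αvβ1 binding to immobilized TGFb1-LAP (1 µg/mL coat) in Mn2+ (1 mM MnCl2), 2% BSA binding buffer over 90 min at room temperature, integrin added at 0.2 µg/mL. Read-out: streptavidin-HRP/TMB; IC50 from Levenberg-Marquardt four-parameter fit.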

A further assay concerns the target αvβ6 (Homo sapiens, UniProt P06756+P18564). In words: Solid Phase Integrin αvβ6 Assay. The format is binding. The method, boiled down:
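Inhibition of αvβ6 binding to immobilized recombinant TGFb1-LAP (1 μg/mL coating), 1 h at room temperature with 1 mM MnCl2 in BSA/TBST buffer, integrin diluted to 0.2 μg/mL before addition. Streptavidin-HRP/TMB read-out; four-parameter logistic fitting gave IC50.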

Sequence of αvβ6 (P06756 31-992 limits assumed): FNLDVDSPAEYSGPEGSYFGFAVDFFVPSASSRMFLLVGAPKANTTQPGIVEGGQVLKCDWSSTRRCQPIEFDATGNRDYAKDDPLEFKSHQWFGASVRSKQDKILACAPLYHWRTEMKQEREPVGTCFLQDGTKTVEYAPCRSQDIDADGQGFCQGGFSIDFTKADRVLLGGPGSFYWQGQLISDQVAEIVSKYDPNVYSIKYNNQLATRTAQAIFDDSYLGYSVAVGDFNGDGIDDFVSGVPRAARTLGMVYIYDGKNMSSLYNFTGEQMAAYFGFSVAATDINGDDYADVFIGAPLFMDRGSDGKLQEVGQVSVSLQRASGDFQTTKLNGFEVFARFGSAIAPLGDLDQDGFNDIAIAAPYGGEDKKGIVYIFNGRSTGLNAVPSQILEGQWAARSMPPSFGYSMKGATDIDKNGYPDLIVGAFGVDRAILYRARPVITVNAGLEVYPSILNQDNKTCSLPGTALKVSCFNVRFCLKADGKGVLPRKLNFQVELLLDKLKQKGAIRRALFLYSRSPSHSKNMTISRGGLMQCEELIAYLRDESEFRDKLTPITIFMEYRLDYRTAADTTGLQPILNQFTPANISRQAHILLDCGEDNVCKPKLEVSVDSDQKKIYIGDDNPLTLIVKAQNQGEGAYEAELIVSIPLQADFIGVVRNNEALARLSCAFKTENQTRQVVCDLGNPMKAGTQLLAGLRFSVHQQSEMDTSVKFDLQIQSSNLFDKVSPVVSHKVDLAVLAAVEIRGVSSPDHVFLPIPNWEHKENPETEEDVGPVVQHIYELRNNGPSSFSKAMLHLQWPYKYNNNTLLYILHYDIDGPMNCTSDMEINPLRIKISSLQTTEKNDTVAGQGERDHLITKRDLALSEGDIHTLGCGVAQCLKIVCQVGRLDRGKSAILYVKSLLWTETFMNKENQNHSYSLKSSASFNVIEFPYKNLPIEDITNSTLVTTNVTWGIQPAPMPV
Sequence of αvβ6 (P18564 22-707 limits assumed): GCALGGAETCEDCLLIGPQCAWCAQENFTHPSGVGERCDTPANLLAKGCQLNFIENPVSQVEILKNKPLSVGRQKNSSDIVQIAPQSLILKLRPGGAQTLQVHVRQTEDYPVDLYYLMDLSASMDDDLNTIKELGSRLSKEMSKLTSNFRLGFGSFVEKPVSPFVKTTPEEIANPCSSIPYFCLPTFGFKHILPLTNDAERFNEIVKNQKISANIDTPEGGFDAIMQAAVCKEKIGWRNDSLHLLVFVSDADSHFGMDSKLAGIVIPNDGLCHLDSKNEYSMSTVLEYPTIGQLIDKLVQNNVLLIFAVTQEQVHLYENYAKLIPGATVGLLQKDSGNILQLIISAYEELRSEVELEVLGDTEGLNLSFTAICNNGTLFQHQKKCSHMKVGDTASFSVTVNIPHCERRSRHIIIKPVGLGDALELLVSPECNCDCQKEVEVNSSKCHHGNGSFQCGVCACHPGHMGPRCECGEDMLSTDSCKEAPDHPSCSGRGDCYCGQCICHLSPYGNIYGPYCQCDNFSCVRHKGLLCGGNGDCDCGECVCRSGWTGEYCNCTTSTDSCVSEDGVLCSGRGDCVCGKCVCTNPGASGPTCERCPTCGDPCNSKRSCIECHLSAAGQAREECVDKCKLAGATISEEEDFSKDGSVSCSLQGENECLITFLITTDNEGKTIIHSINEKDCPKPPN
Sequence of αvβ1 (P06756 31-992 limits assumed): as the sequence (P06756 31-992 limits assumed) above
Sequence of αvβ1 (P05556 21-728 limits assumed): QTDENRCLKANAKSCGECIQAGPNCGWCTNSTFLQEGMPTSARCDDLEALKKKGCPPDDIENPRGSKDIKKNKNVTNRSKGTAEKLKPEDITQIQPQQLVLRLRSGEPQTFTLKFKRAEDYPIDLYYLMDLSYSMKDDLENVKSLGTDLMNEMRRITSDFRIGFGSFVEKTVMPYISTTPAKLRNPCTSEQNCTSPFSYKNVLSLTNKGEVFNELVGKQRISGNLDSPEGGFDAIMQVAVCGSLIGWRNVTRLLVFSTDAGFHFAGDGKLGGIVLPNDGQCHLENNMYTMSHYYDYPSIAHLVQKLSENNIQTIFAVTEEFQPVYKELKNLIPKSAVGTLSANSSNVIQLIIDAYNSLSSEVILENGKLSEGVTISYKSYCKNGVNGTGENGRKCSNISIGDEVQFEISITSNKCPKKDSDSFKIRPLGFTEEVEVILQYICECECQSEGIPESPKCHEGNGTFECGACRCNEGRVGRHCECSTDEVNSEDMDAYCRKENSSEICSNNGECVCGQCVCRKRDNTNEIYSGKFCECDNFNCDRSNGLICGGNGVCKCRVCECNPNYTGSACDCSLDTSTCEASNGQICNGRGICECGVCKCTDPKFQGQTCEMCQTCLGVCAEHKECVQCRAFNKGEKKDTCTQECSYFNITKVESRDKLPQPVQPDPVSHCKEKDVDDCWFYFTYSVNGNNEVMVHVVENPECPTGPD

Consider `O=C(O)C[C@H](CN[C@@H]1CCCN(CCCc2ccc3c(n2)NCCC3)C1)c1ccccc1` [Compound 295, (S)-3-phenyl-4-(((R)-1-(3-(5,6,7,8-tetrahydro-1,8-naphthyridin-2-yl)propyl)piperidin-3-yl)amino)butanoic acid], for which the IC50 on αvβ1 and at αvβ6 was less than 100 nM throughout.
With `O=C(O)C[C@H](OC[C@@H]1CCCN(CCCc2ccc3c(n2)NCCC3)C1)c1ccccc1` [Compound 294, (S)-3-phenyl-3-(((R)-1-(3-(5,6,7,8-tetrahydro-1,8-naphthyridin-2-yl)propyl)piperidin-3-yl)methoxy)propanoic acid], the IC50 against αvβ1 and on αvβ6 was more than 1000 nM in each case.
With `CC1(C)CN(c2cccc([C@@H](CO[C@@H]3CCCN(CCCc4ccc5c(n4)NCCC5)C3)CC(=O)O)c2)CCO1` [Compound 568], the IC50 against αvβ1 and against αvβ6 was less than 100 nM each time.
For the molecule `O=C(O)C[C@@H](NC(=O)[C@@H]1CCCN(CCCc2ccc3c(n2)NCCC3)C1)c1ccc2c(c1)C1(CC2)CC1` [Compound 328], the IC50 on αvβ1 and against αvβ6 was 100 to 1000 nM throughout.
Take `O=C(O)C[C@H](NC(=O)[C@@H]1CCCN(CCCc2ccc3c(n2)NCCC3)C1)c1cccc(N2CCOCC2)c1` [Compound 229, (S)-3-(3-morpholinophenyl)-3-((R)-1-(3-(5,6,7,8-tetrahydro-1,8-naphthyridin-2-yl)propyl)piperidine-3-carboxamido)propanoic acid hydrochloride]: the IC50 on αvβ1 and on αvβ6 was less than 100 nM in each case.
For the molecule `C[C@@H]1CN(c2cccc([C@H](CC(=O)O)NC(=O)[C@@H]3CCCN(CCCc4ccc5c(n4)NCCC5)C3)c2)C[C@H](C)O1` [Compound 617], the 50% inhibitory concentration (IC50) against αvβ1 and on αvβ6 was less than 100 nM each time.
In the case of `CC1(C)CN(c2cc([C@H](CO[C@@H]3CCCN(CCCc4ccc5c(n4)NCCC5)C3)CC(=O)O)ccc2F)CCO1` [Compound 580], the IC50 at αvβ1 and on αvβ6 was less than 100 nM each time.
For the molecule `O=C(CC[C@H](C(=O)O)c1ccccc1)N[C@@H]1CCN(CCCCc2ccc3c(n2)NCCC3)C1` [Compound 420], the IC50 on αvβ1 and at αvβ6 was more than 1000 nM throughout.
With `CC1(C)CN(c2cccc([C@@H](CO[C@@H]3CCCN(CCCc4ccc5c(n4)NCCC5)C3)CC(=O)O)c2)CCC1(F)F` [Compound 652], the half-inhibitory concentration (IC50) against αvβ1 and on αvβ6 was less than 100 nM each time.
For `O=C(O)C[C@H](C(=O)N[C@@H]1CCCN(CCCc2ccc3c(n2)NCCC3)C1)c1ccccc1` [Compound 299, (S)-4-oxo-3-phenyl-4-(((R)-1-(3-(5,6,7,8-tetrahydro-1,8-naphthyridin-2-yl)propyl)piperidin-3-yl)amino)butanoic acid], the half-maximal inhibitory concentration (IC50) against αvβ1 and on αvβ6 was more than 1000 nM in each case.
With `Cc1cc(C)n(-c2cccc([C@@H](CO[C@@H]3CCCN(CCCc4ccc5c(n4)NCCC5)C3)CC(=O)O)c2)n1` [Compound 574], the half-maximal inhibitory concentration (IC50) against αvβ1 and against αvβ6 was less than 100 nM throughout.
On to `O=C(O)C[C@H](NC(=O)[C@@H]1CCCN(CCCc2ccc3c(n2)NCCC3)C1)c1ccc2c(c1)OCO2` [Compound 214, (S)-3-(benzo[d][1,3]dioxol-5-yl)-3-((R)-1-(3-(5,6,7,8-tetrahydro-1,8-naphthyridin-2-yl)propyl)piperidine-3-carboxamido)propanoic acid], for which the IC50 against αvβ1 and at αvβ6 was less than 100 nM each time.
For `O=C(NC[C@@H](Nc1cccnc1C1CC(F)(F)C1)C(=O)O)[C@@H]1CCCN(CCCc2ccc3c(n2)NCCC3)C1` [Compound 593], the IC50 against αvβ1 and against αvβ6 was less than 100 nM each time.
As for `O=C(O)[C@H](CO[C@@H]1CCCN(CCCc2ccc3c(n2)NCCC3)C1)NC(=O)C12CCC(CC1)CC2` [Compound 400], the half-inhibitory concentration (IC50) against αvβ1 and against αvβ6 was less than 100 nM in each case.
Turning to `O=C(O)[C@H](CO[C@@H]1CCCN(CCCCc2ccc3c(n2)NCCC3)C1)Nc1ncnc2ccccc12` [Compound 409], the half-inhibitory concentration (IC50) – broadly, the midpoint of a concentration-inhibition curve – is more than 1000 nM on αvβ1 and less than 100 nM on αvβ6.
For `O=C(O)[C@H](c1ccccc1)[C@@H](O)CO[C@@H]1CCCN(CCCc2ccc3c(n2)NCCC3)C1` [Compound 612] the same measures were more than 1000 nM and more than 1000 nM.
For `O=C(O)[C@H](CCO[C@H]1CCCN(CCCc2ccc3c(n2)NCCC3)C1)NC(=O)C12CCC(CC1)CC2` [Compound 447], in that order: less than 100 nM and less than 100 nM.
With `O=C(O)C[C@@H](NC(=O)[C@@H]1CCCN(CCCc2ccc3c(n2)NCCC3)C1)c1cccc2c1CCCO2` [Compound 216-B, 3-(chroman-5-yl)-3-((R)-1-(3-(5,6,7,8-tetrahydro-1,8-naphthyridin-2-yl)propyl)piperidine-3-carboxamido)propanoic acid], the IC50 at αvβ1 and at αvβ6 was more than 1000 nM each time.
Turning to `Cc1c[s+]([O-])c2ncnc(N[C@H](CCO[C@@H]3CCCN(CCCc4ccc5c(n4)NCCC5)C3)C(=O)O)c12` (stereo partly shown) [Compound 510], the concentration for half-maximal inhibition (IC50) against αvβ1 and against αvβ6 was more than 1000 nM in each case.
Regarding `O=C(NC[C@H](C(=O)O)c1ccc(-c2ccccc2)cc1)[C@@H]1CCCN(CCCc2ccc3c(n2)NCCC3)C1` [Compound 342], the IC50 against αvβ1 and against αvβ6 was less than 100 nM in each case.
With `O=C(N[C@@H](CNC(=O)[C@@H]1CCCN(CCCc2ccc3c(n2)NCCC3)C1)C(=O)O)c1c(F)cc(N2CCOC[C@@H]2C(F)(F)F)cc1F` [Compound 359], the half-inhibitory concentration (IC50) at αvβ1 and on αvβ6 was less than 100 nM throughout.
Regarding `O=C(O)C[C@H](NC(=O)[C@@H]1CCCN(CCCc2ccc3c(n2)NCCC3)C1)c1cccc2c1CCC2` [Compound 211-A, 3-(2,3-dihydro-1H-inden-4-yl)-3-((R)-1-(3-(5,6,7,8-tetrahydro-1,8-naphthyridin-2-yl)propyl)piperidine-3-carboxamido)propanoic acid], the half-inhibitory concentration (IC50) at αvβ1 and against αvβ6 was less than 100 nM each time.
Consider `O=C(NC[C@H](Nc1ncnc2ccccc12)C(=O)O)[C@@H]1CCCN(CCCc2ccc3c(n2)NCCC3)C1` [Compound 271, (S)-2-(quinazolin-4-ylamino)-3-((R)-1-(3-(5,6,7,8-tetrahydro-1,8-naphthyridin-2-yl)propyl)piperidine-3-carboxamido)propanoic acid], for which the IC50 at αvβ1 and against αvβ6 was less than 100 nM throughout.
As for `O=C(O)[C@@H](c1ccccc1)[C@H](O)CO[C@@H]1CCCN(CCCc2ccc3c(n2)NCCC3)C1` [Compound 609], the half-maximal inhibitory concentration (IC50) on αvβ1 and against αvβ6 was more than 1000 nM throughout.
`CC1(C)CCCN(c2cccc([C@@H](CNC(=O)[C@@H]3CCCN(CCCc4ccc5c(n4)NCCC5)C3)C(=O)O)c2)C1` [Compound 599]: the half-maximal inhibitory concentration (IC50) against αvβ1 and on αvβ6 was less than 100 nM each time.
With `O=C(O)C[C@H](CO[C@@H]1CCCN(CCCc2ccc3c(n2)NCCC3)C1)c1cccc([C@@H]2CCOC2)c1` [Compound 491], the IC50 against αvβ1 and on αvβ6 was less than 100 nM each time.
`O=C(NC[C@@H](C(=O)O)c1cccc(C2CC2)c1)[C@@H]1CCCN(CCCc2ccc3c(n2)NCCC3)C1` [Compound 258-B, 2-(3-cyclopropylphenyl)-3-((R)-1-(3-(5,6,7,8-tetrahydro-1,8-naphthyridin-2-yl)propyl)piperidine-3-carboxamido)propanoic acid]: the IC50 at αvβ1 and on αvβ6 was less than 100 nM throughout.
For `O=C(O)[C@@H](CCO[C@@H]1CCCN(CCCc2ccc3c(n2)NCCC3)C1)Nc1ncnc2cc(F)c(F)cc12` [Compound 503], the IC50 against αvβ1 is more than 1000 nM; against αvβ6, 100 to 1000 nM.
For `O=C(NC[C@H](C(=O)O)c1cccc2nn(CC3CC3)cc12)[C@@H]1CCCN(CCCc2ccc3c(n2)NCCC3)C1` [Compound 317], in that order: less than 100 nM and less than 100 nM.
Regarding `O=C(O)C[C@H](CO[C@@H]1CCCN(CCCc2ccc3c(n2)NCCC3)C1)c1ccc(-c2ccccc2)cc1` [Compound 458], the 50% inhibitory concentration (IC50) on αvβ1 and against αvβ6 was less than 100 nM in each case.
Take `O=C(O)C[C@H](CO[C@@H]1CCCN(CCCCc2ccc3c(n2)NCCC3)C1)c1ccccc1` [Compound 357]: the half-inhibitory concentration (IC50) against αvβ1 and at αvβ6 was 100 to 1000 nM throughout.
Regarding `O=C(O)[C@H](CO[C@@H]1CCCN(CCCCc2ccc3c(n2)NCCC3)C1)c1ccccc1` [Compound 395], the half-maximal inhibitory concentration (IC50) on αvβ1 and on αvβ6 was more than 1000 nM in each case.
Regarding `O=C(O)C[C@H](CC(=O)N[C@H]1CCN(C(=O)CCCc2ccc3c(n2)NCCC3)C1)c1ccccc1` [Compound 522], the concentration for half-maximal inhibition (IC50) on αvβ1 is less than 100 nM; at αvβ6, 100 to 1000 nM.
For `O=C(CC[C@H](NC(=O)[C@@H]1CCCN1S(=O)(=O)c1ccccc1)C(=O)O)N[C@H]1CCN(C(=O)CCCc2ccc3c(n2)NCCC3)C1` [Compound 439], in that order: less than 100 nM and 100 to 1000 nM.
For `O=C(N[C@H](CCO[C@@H]1CCCN(CCCc2ccc3c(n2)NCCC3)C1)C(=O)O)c1c(F)cccc1F` [Compound 480], in that order: 100 to 1000 nM and 100 to 1000 nM.
For `O=C(O)C[C@H](OC[C@@H]1CCCN(CCCc2ccc3c(n2)NCCC3)C1)c1cccc(C2CC2)c1` [Compound 528] the same measures were more than 1000 nM and more than 1000 nM.
As to `O=C(O)C[C@@H](CO[C@@H]1CCCN(CCCc2ccc3c(n2)NCCC3)C1)c1ccc(-c2ccccc2)cc1` [Compound 459], the 50% inhibitory concentration (IC50) against αvβ1 was more than 1000 nM; on αvβ6 it was 100 to 1000 nM.
For `C[C@@H]1CC[C@H](C(=O)N[C@@H](CC(=O)O)c2ccccc2)CN1CCCc1ccc2c(n1)NCCC2` [Compound 346], in that order: less than 100 nM and less than 100 nM.
